From US10369119B2 (priority 2015, dated 2019)
“Also recorded” adds a separate entry of the source.

Legend:
furin = biological target: T1, furin (Mus musculus, UniProt P23188); format: cell-based
T1 construct: endogenous in cells; host or cells: RAW264.7

caspase-6 [1] = biological target: T2, caspase-6 (Homo sapiens, UniProt P55212); format: biochemical
T2 construct: purchased BioVision

caspase-9 = biological target: T3, caspase-9 (Homo sapiens, UniProt P55211); format: biochemical
T3 construct: purchased BioVision
T3 sequence (P55211 1-315 limits assumed): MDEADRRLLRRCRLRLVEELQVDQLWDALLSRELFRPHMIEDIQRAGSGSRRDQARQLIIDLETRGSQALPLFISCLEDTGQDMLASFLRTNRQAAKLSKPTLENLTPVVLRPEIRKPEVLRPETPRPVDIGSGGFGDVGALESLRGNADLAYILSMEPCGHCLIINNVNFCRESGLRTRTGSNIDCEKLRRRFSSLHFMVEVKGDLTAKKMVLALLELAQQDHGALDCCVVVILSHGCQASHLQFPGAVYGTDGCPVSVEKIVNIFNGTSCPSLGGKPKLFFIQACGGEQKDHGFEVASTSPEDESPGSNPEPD
T3 sequence (P55211 331-416 limits assumed): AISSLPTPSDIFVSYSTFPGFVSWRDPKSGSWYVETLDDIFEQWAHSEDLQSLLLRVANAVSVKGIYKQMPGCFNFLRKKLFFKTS

caspase-7 = biological target: T4, caspase-7 (Homo sapiens, UniProt P55210); format: biochemical
T4 construct: purchased BioVision
T4 sequence (P55210 24-198 limits assumed): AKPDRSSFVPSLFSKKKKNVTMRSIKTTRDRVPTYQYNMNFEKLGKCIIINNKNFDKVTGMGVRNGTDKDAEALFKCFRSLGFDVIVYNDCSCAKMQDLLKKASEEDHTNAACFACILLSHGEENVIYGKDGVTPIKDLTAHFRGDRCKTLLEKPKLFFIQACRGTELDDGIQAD
T4 sequence (P55210 207-303 limits assumed): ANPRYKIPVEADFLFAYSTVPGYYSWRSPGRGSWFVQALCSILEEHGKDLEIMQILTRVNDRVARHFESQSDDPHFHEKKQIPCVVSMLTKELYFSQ

[2] = tested on: Pseudomonas aeruginosa exotoxin A (PE)-mediated cytotoxicity in RAW264.7 cells; assay: cells; settings: Mus musculus, RAW264.7, read-out: EC50 for reduction of Pseudomonas toxin-mediated cytotoxicity
[3] = tested on: PE-sensitive HapMap cells (human B-lymphocytes); format: cell-based
anthrax LF toxin = anthrax LF toxin (Bacillus anthracis, UniProt P15917); format: cell-based
Chain of anthrax LF toxin (P15917 34-809 limits assumed): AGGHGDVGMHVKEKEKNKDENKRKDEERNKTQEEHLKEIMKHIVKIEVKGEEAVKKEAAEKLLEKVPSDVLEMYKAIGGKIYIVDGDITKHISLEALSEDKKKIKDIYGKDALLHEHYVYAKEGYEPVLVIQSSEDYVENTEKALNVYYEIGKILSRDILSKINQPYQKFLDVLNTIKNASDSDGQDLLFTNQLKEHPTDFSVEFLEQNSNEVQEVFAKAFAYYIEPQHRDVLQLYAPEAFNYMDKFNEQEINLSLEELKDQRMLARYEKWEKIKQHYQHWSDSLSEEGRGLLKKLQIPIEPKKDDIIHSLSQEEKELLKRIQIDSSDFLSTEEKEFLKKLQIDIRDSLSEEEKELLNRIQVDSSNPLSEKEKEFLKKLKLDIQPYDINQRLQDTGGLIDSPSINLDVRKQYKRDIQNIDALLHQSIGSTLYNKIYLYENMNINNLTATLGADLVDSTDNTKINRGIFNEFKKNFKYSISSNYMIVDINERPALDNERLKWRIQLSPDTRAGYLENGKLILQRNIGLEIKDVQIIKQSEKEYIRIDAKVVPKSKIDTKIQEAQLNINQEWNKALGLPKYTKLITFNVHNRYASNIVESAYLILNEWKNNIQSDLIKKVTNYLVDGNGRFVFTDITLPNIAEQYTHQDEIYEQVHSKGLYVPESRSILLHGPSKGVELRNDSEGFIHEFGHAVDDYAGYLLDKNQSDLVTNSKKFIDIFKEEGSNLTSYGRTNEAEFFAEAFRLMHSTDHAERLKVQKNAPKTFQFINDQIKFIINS

other caspases = format: biochemical, human
caspase-6 [4] = biological target: T5, caspase-6 (Mus musculus, UniProt O08738); assay: biochemical; format: biochemical
T5 construct: Caspases were induced in RAW264.7 by treating cells with 2 μg/ml of PE for 4 hours; endogenous in cells; host or cells: RAW264.7 (lysate after PE treatment)
T5 sequence (O08738 6-162 limits assumed): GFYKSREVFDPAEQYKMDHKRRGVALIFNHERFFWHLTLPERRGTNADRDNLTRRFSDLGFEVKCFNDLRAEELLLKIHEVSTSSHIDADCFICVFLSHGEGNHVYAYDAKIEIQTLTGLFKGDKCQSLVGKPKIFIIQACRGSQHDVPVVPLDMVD
T5 sequence (O08738 176-276 limits assumed): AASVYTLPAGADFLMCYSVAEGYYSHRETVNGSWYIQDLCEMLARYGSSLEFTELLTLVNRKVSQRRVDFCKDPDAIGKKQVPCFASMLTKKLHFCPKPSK

[5] = tested on: LF-PA-mediated cell killing in RAW264.7 cells; format: cell-based, mouse
Senegal ZIKV [6] = assay: Zika virus high content imaging infection assay, Senegal strain DAK AR D 41525 in human astrocytes; format: cell-based; settings: Astrocyte, 2 hours pretreatment, MOI 15, 48 hours, read-out: EC50 for inhibition of abundance of Senegal ZIKV in human astrocytes
[7] = tested on: Diphtheria toxin-mediated cytotoxicity in C32 cells; assay: cells; settings: Homo sapiens, C32, read-out: EC50 for reduction of diphtheria toxin-mediated cytotoxicity
caspase-1 [8] = biological target: T6, caspase-1 (Mus musculus, UniProt P29452); format: cell-based
T6 construct: Cathepsin B and caspase-1 activities in total cell lysates were determined; endogenous in cells; host or cells: RAW264.7
T6 sequence (P29452 119-296 limits assumed): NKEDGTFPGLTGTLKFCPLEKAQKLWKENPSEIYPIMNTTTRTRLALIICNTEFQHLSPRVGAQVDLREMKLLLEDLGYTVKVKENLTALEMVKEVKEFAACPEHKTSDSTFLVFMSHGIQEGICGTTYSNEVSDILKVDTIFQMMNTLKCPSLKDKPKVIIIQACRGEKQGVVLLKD
T6 sequence (P29452 315-402 limits assumed): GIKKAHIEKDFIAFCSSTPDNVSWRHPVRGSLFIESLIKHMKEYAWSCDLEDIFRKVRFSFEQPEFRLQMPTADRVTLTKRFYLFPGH

Puerto Rico ZIKV = assay: Zika virus high content imaging infection assay, Puerto Rico strain PRVABC59 in Vero E6 cells; format: cell-based; settings: Vero C1008, 2 hours pretreatment, MOI 0.5, 48 hours, read-out: EC50 for inhibition of abundance of Puerto Rico ZIKV in Vero E6 cells
Senegal ZIKV [9] = assay: Zika virus high content imaging infection assay, Senegal strain DAK AR D 41525 in Vero E6 cells; format: cell-based; settings: Vero C1008, 2 hours pretreatment, MOI 0.5, 48 hours, read-out: EC50 for inhibition of abundance of Senegal ZIKV in Vero E6 cells
BoNT/A light chain = BoNT/A light chain (Clostridium botulinum, UniProt P0DPI0); format: biochemical
Chain of BoNT/A light chain (P0DPI0 2-448 limits assumed): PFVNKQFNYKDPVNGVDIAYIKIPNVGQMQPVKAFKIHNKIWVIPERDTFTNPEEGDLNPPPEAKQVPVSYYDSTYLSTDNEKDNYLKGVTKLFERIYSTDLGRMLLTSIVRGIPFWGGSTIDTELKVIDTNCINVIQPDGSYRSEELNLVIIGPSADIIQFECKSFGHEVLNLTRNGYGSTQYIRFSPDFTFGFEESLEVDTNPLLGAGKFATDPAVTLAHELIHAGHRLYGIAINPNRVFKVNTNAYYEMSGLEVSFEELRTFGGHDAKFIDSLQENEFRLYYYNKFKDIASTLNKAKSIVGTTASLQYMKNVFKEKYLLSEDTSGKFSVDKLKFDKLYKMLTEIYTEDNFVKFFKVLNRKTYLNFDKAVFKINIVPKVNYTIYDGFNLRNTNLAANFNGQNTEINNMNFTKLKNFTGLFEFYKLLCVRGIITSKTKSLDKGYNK

[10] = tested on: cholera toxin-mediated cytotoxicity in RAW264.7 cells; assay: cells; settings: Mus musculus, RAW264.7, read-out: EC50 for reduction of cholera toxin-mediated cytotoxicity
[11] = tested on: botulinum neurotoxin serotype A complex (BoNT/A); set-up: species or system Swiss Webster (CFW) mice; settings: mouse, in vivo
caspase-3/7 = format: biochemical, mouse
caspase-3 [12] = biological target: T7, caspase-3 (Homo sapiens, UniProt P42574); format: biochemical
T7 construct: purchased BioVision
T7 sequence (P42574 29-175 limits assumed): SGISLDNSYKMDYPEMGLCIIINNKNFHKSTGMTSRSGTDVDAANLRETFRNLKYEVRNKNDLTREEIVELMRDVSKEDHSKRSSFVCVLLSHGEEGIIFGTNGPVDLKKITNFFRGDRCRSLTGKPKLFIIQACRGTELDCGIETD
T7 sequence (P42574 176-277 limits assumed): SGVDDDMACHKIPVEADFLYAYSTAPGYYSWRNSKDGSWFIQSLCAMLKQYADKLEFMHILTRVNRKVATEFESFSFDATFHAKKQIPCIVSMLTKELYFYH

cathepsin-B = biological target: T8, cathepsin-B (Mus musculus, UniProt P10605); format: cell-based
T8 construct: Cathepsin B and caspase-1 activities in total cell lysates were determined; endogenous in cells; host or cells: RAW264.7
T8 sequence (P10605 80-333): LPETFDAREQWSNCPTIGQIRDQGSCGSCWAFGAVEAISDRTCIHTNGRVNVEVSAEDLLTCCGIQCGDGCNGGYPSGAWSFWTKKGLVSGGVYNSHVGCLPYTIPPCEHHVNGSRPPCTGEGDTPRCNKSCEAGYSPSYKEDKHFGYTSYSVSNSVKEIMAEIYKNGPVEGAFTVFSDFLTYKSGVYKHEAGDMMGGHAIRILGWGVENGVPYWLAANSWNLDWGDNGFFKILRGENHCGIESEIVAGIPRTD

caspase-1 [13] = biological target: T9, caspase-1 (Homo sapiens, UniProt P29466); format: biochemical
T9 construct: purchased BioVision
T9 sequence (P29466 120-297 limits assumed): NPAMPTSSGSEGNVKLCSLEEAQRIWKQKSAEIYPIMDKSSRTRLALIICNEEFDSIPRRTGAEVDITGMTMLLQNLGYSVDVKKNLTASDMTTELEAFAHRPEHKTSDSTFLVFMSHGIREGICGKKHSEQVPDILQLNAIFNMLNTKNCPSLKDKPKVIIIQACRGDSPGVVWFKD
T9 sequence (P29466 317-404 limits assumed): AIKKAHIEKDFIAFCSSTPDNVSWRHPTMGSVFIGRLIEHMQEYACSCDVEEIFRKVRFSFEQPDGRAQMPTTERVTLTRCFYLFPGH

caspase-3 [14] = biological target: T10, caspase-3 (Mus musculus, UniProt P70677); assay: biochemical; format: biochemical
T10 construct: Caspases were induced in RAW264.7 by treating cells with 2 μg/ml of PE for 4 hours; endogenous in cells; host or cells: RAW264.7 (lysate after PE treatment)
T10 sequence (P70677 29-175 limits assumed): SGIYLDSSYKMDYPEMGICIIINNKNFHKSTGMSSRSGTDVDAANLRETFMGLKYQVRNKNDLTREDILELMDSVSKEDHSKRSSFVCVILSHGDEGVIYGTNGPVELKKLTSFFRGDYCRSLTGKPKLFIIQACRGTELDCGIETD
T10 sequence (P70677 176-277 limits assumed): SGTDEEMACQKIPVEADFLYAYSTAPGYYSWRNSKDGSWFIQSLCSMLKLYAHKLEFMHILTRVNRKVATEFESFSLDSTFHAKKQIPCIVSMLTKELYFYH

[15] = tested on: cholera toxin-mediated cytotoxicity in RAW264.7 cells
[16] = tested on: Diphtheria toxin-mediated cytotoxicity in C32 cells
[17] = tested on: Pseudomonas aeruginosa exotoxin A (PE)-mediated cytotoxicity in RAW264.7 cells

T2 sequence (P55212 24-179 limits assumed): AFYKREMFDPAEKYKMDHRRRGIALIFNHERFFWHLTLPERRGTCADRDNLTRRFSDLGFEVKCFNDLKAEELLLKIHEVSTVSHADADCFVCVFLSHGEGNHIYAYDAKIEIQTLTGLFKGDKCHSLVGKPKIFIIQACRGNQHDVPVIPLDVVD
T2 sequence (P55212 194-293 limits assumed): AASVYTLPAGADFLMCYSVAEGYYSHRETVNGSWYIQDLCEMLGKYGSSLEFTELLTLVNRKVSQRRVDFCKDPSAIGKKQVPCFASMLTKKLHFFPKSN
T1 sequence (P23188 108-793): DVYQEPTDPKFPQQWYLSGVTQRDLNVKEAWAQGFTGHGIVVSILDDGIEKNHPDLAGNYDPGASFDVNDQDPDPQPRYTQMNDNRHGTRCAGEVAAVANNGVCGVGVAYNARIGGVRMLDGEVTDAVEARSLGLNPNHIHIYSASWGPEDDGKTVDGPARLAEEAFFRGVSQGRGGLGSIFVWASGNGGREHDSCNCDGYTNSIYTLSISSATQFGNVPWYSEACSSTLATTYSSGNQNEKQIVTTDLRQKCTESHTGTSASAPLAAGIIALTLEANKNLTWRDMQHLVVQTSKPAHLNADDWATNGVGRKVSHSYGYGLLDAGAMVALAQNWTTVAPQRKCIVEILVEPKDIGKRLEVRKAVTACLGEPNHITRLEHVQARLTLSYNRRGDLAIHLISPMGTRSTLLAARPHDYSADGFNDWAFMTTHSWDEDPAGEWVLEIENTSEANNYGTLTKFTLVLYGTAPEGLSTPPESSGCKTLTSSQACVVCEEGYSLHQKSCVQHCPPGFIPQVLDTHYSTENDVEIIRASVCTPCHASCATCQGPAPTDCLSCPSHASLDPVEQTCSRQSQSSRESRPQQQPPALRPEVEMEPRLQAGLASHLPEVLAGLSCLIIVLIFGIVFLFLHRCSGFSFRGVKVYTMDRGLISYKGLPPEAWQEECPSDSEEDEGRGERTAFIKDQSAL

Oc1c(Cl)cc(Cl)cc1Sc1cc(Cl)cc(Cl)c1O [Bithionol]
Inhibition of proteolytic activity of cellular furin (furin): does not inhibit | Inhibition of purified recombinant human caspase-6 activity (caspase-6 [1]): inhibited activities | Inhibition of purified recombinant human caspase-9 activity (caspase-9): inhibited activities | Inhibition of purified recombinant human caspase-7 activity (caspase-7): inhibited activities | EC50 [2]: 10 µM | Reduction of cellular sensitivity to PE in PE-sensitive HapMap cells [3]: protected three cell lines | Inhibition of proteolytic activity of cellular LF (MAPKK2 proteolysis) (anthrax LF toxin): does not block proteolysis; also recorded: does not inhibit | Inhibition of other purified recombinant human caspases (other caspases): no inhibitory effects | IC50 (caspase-6 [4]): 13 µM | CCL FRET screen hit: reduction of proteolysis of caspase-6 substrate (caspase-6 [4]; 33 μM): capable of prominently reducing the proteolysis of all three caspase substrates | Protection against LF-PA-mediated cell killing [5]: substantial protection | EC50 (Senegal ZIKV [6]): 6.3 µM | EC50 [7]: 10 µM | Caspase-1 induction upon LF-PA treatment (caspase-1 [8]): caspase-1 induction was not detected | EC50 (Puerto Rico ZIKV): 6.7 µM | EC50 (Senegal ZIKV [9]): 5.5 µM | Effect on proteolysis rate of fluorescent SNAP-25 substrate by BoNT/A (BoNT/A light chain): did not affect the proteolysis rate | EC50 [10]: 10 µM | Survival of mice challenged with lethal oral dose of BoNT/A complex [11]: all of the mice | Toxin-associated symptoms (wasp waist, paralysis) in BoNT/A challenged mice [11]: without displaying toxin-associated symptoms | CCL FRET screen hit: reduction of proteolysis of caspase-3/7 substrate (caspase-3/7; 33 μM): capable of prominently reducing the proteolysis of all three caspase substrates | IC50 (caspase-3/7; read-out: IC50 for inhibition of proteolytic cleavage of caspase-3/7 substrate): 11 µM | Inhibition of purified recombinant human caspase-3 activity (caspase-3 [12]): inhibited activities | Inhibition of proteolytic activity of cellular cathepsin-B (cathepsin-B): does not inhibit | Inhibition of purified recombinant human caspase-1 activity (caspase-1 [13]): inhibited activities | IC50 (caspase-3 [14]): 21 µM | CCL FRET screen hit: reduction of proteolysis of caspase-3 substrate (caspase-3 [14]; 33 μM): capable of prominently reducing the proteolysis of all three caspase substrates

Oc1cccc(O)c1O [Pyrogallol]
CCL cellular screen hit: reduction of cholera toxin cytotoxicity [15]: capable of reducing the cytotoxicities of all three toxins | CCL cellular screen hit: reduction of diphtheria toxin cytotoxicity [16]: capable of reducing the cytotoxicities of all three toxins | CCL cellular screen hit: reduction of PE cytotoxicity [17]: capable of reducing the cytotoxicities of all three toxins
